Assay results taken from US20150094294A1, “COMPOUNDS AND METHODS FOR TREATING MALARIA” (Cellceutix Corporation, priority 2012, published 2015).
pEC50, pIC50: −log10 of the molar value. Values after ≈ are worked out from the molar mass of the structure shown.

Experiments:
Type in all cases: cell-based
3T3 cells = test: Cytotoxicity against 3T3 cells; details: for Cytotoxicity 3T3 EC50: 3T3 cells
[1] = tested on: P. falciparum 3D7 (chloroquine-sensitive); test: Anti-malarial activity, P. falciparum 3D7 culture, 72 hour, DNA content by flow cytometry; details: synchronized ring-stage parasites
Method in brief: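 Magnet-synchronized ring-stage parasites in RPMI 1640/Albumax II were plated at 0.5% parasitemia, 4% final hematocrit, with compound added as 2× dilutions (2.5 μM to 20 nM) for 72 h. Fixed, Triton-permeabilized cells were stained with SYTOX Green (5 μM final), and DNA content was measured by flow cytometry to derive IC50.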

[2] = tested on: P. falciparum DD2 (chloroquine-resistant); test: Anti-malarial activity, P. falciparum DD2 culture, 72 hour, DNA content by flow cytometry; details: synchronized ring-stage parasites
Procedure: Numerous compounds were screened in cultures of the malaria parasite P. falciparum 3D7 (chloroquine-sensitive) and DD2 (chloroquine-resistant). The compounds were also screened for toxixcity against 3T3 cells, HepG2 cells, and in a hemolysis assay. In brief, P. falciparum parasites were cultured in RPMI 1640 (Invitrogen) supplemented with Albumax II (Invitrogen). For synchronization, schizont stage parasites were magnet purified using a SuperMACS™ II Cell Separation Unit (Miltenyi Biotech). For IC50 determinations, synchronized ring-stage parasites were plated at 0.5% parasitemia and 8% hematocrit in 96-well plates at a total volume of 50 μL. Serial dilutions of 2× concentration of the respective compound, ranging from 2.5 μM to 20 nM, were added to the wells to bring the total volume up to 100 μL and 4% hematocrit. Compounds were assayed for a 72 hour period, after which the cultures were fixed with a solution of 4% paraformaldehyde and 0.08% glutaraldhyde in PBS. The cells were then permeabilized with 0.25% Triton X-100, and SYTOX Green Nucleic Acid Stain (Invitrogen) in PBS was added to a final concentration of 5 μM. DNA content, as an indicator of parasitemia, was analyzed on an Accuri C6 Flow Cytometer with C-Sampler. IC50 curves were generated using GraphPad Prism (GraphPad Software).

HepG2 cells = test: Cytotoxicity against HepG2 cells; details: for Cytotoxicity HepG2 EC50: HepG2 cells
in vitro = test: in vitro
[3] = Cytotoxicity against 3T3 cells; details: mouse, 3T3 cells; read-out: Cytotoxicity 3T3 EC50
[4] = Cytotoxicity against HepG2 cells; details: human, HepG2 cells; read-out: Cytotoxicity HepG2 EC50
[5] = Plasmodium falciparum, 3D7, 72 h

Row | Compound | pEC50 (3T3 cells) | pIC50 [1] | pIC50 [2] | pEC50 (HepG2 cells) | Cytotoxicity 3T3 EC50 (3T3 cells) | pIC50 [1, 5] | EC50 (in vitro) [µg/mL] | pIC50 ([2]; Plasmodium falciparum) | Cytotoxicity HepG2 EC50 (HepG2 cells) | pEC50 [3] | pEC50 [4]
1 | CCN(CC)CCN(CCN)c1c(NC(=O)Nc2cc(C(F)(F)F)cc([N+](=O)[O-])c2N(CCN)CCN(CC)CC)cc(C(F)(F)F)cc1[N+](=O)[O-] [Compound 123] | 3.55 | 6.80 | 6.48 | 3.36 | – | – | – | – | – | – | –
2 | N=C(N)NCCCOc1cc(OCCCNC(=N)N)c(-c2ccccc2)cc1-c1ccccc1 [Compound 143] | 4.13 | – | 6.99 | 3.92 | – | – | – | – | – | – | –
3 | CC(C)(C)c1cc(N)c(SCCN)c(NC(=O)c2cccc(C(=O)Nc3cc(C(C)(C)C)cc(N)c3SCCN)n2)c1 [Compound 117] | 5.30 | 6.14 | 6.10 | 5.05 | – | – | – | – | – | – | –
4 | CC(C)(C)c1ccc(NC(=O)CCCCNC(=N)N)c(-c2ccc(-c3cc(C(C)(C)C)ccc3NC(=O)CCCCNC(=N)N)cc2)c1 [Compound 141] | 4.55 | 6.20 | 6.15 | 4.26 | – | – | – | – | – | – | –
5 | N=C(N)NCCc1cc(Br)cc(C#Cc2cc(C#Cc3cc(Br)cc(CCNC(=N)N)c3)cc(C(F)(F)F)c2)c1 [Compound 179] | – | – | – | – | insol | 6.06 | 22 (≈ 32.6 µM) | 6.10 | insol | – | –
6 | CC(N)C(=O)Nc1ccc(-c2ccc(-c3ccc(NC(=O)C(C)N)cc3)cc2)cc1 (centres unmarked) [Compound 136] | < 3.00 | 6.75 | 6.38 | < 3.00 | – | – | – | – | – | – | –
7 | O=C(Nc1cc(C(F)(F)F)c(OC2CCNC2)cc1OC1CCNC1)c1cc(C(=O)Nc2cc(C(F)(F)F)c(OC3CCNC3)cc2OC2CCNC2)ncn1 (centres unmarked) [Compound 103] | 3.59 | 6.83 | 6.68 | 3.42 | – | – | – | – | – | – | –
8 | N=C(N)NCCSc1ccc(NC(=O)Nc2ccc(SCCNC(=N)N)c(C(F)(F)F)c2)cc1C(F)(F)F [Compound 120] | 4.19 | 7.08 | 7.34 | 3.78 | – | – | – | – | – | – | –
9 | CN(C)CCSc1cc(SCCN(C)C)c(C(F)(F)F)cc1NC(=O)c1cc(C(=O)Nc2cc(C(F)(F)F)c(SCCN(C)C)cc2SCCN(C)C)ncn1 [Compound 102] | > 5.70 | 7.19 | 6.62 | 4.30 | – | – | – | – | – | – | –
10 | N=C(N)NCCCCC(=O)Nc1cc(C(F)(F)F)cc(NC(=O)c2cc(C(=O)Nc3cc(C(F)(F)F)cc(NC(=O)CCCCNC(=N)N)c3SCCC(=O)O)ncn2)c1SCCC(=O)O [Compound 168] | – | – | – | – | – | 6.64 | > 1000 | 7.01 | – | < 4.00 | < 4.00
11 | COc1ccc(CN)cc1NC(=O)c1cc(C(=O)Nc2cc(CN)ccc2OC)ncn1 [Compound 175] | – | – | – | – | – | 6.37 | > 1000 | 6.25 | – | 3.52 | 3.44
12 | N=C(N)NCCOc1ccccc1C(=O)Nc1ccc2c(c1)Cc1cc(NC(=O)c3ccccc3OCCNC(=N)N)ccc1-2 [Compound 172] | – | – | – | – | Insol. | – | 22 (≈ 36.3 µM) | 6.53 | Insol. | – | –
13 | N=C(N)NCCCCC(=O)Nc1ccc(-c2nnc(-c3ccc(NC(=O)CCCCNC(=N)N)cc3)o2)cc1 [Compound 131] | – | – | – | – | – | 7.38 | 212 (≈ 397 µM) | 7.19 | – | 3.49 | 3.45
14 | N=C(N)NCCCCOc1cc(OCCCCNC(=N)N)c(C(F)(F)F)cc1NC(=O)Nc1cc(C(F)(F)F)c(OCCCCNC(=N)N)cc1OCCCCNC(=N)N [Compound 128] | – | – | – | – | – | 6.06 | 58 (≈ 67.1 µM) | 6.05 | – | 3.92 | 3.63
15 | NCCSc1ccc(C(F)(F)F)cc1C(=O)Nc1ccc(-c2ccc(NC(=O)c3cc(C(F)(F)F)ccc3SCCN)cc2)cc1 [Compound 174] | – | – | – | – | – | 6.23 | 1 (≈ 1.47 µM) | 6.41 | – | > 4.80 | > 4.80
